Consider 13 compounds from ChEMBL document CHEMBL2407067, “Pyridone-conjugated monobactam antibiotics with gram-negative activity” (J Med Chem, 2013).

≈ marks a conversion by molar mass, not a printed value.

The test system of assay [1] is Pseudomonas aeruginosa. Kind of assay: Antibacterial activity against Pseudomonas aeruginosa from cystic fibrosis patients by broth microdilution method. The assay is classed as functional. (In general: In broth dilution the organism is exposed to a series of concentrations in liquid medium.)
Another assay deals with Acinetobacter sp. Kind of assay: Antibacterial activity against Acinetobacter spp. by broth microdilution method. It counts as functional.
In assay [2] the test system is Escherichia coli. In words: Antibacterial activity against Escherichia coli expressing defined beta-lactamase by broth microdilution method. It counts as functional.
In assay [3] the test system is Escherichia coli. Kind of assay: Antibacterial activity against Escherichia coli expressing CTX-M by broth microdilution method. The assay is classed as functional.
Assay [4] relates to Escherichia coli. Kind of assay: Antibacterial activity against Escherichia coli expressing ESBL by broth microdilution method. The assay is classed as functional.
The subject of assay [5] is Klebsiella pneumoniae. Kind of assay: Antibacterial activity against Klebsiella pneumoniae expressing KPC by broth microdilution method. It counts as functional.
Assay [6] deals with Klebsiella pneumoniae. Kind of assay: Antibacterial activity against Klebsiella pneumoniae expressing ESBL by broth microdilution method. It counts as functional.
For assay [7], the system named is Klebsiella pneumoniae. Kind of assay: Antibacterial activity against Klebsiella pneumoniae expressing defined beta-lactamase by broth microdilution method. It counts as functional.
For assay [8], the system named is Pseudomonas aeruginosa. In words: Antibacterial activity against Pseudomonas aeruginosa expressing metallo-beta-lactamase by broth microdilution method. It counts as functional.
Another assay relates to Acinetobacter baumannii. In words: Antibacterial activity against Acinetobacter baumannii AB-3167 by broth microdilution method. The assay is classed as functional.
Assay [9] deals with Klebsiella pneumoniae. Kind of assay: Antibacterial activity against Klebsiella pneumoniae 1487-07 by broth microdilution method. It counts as functional.
Assay [10] has as its system Pseudomonas aeruginosa. In words: microbe, parasite or virus in culture. To be noted: 1091-05.
Description: Antibacterial activity against Pseudomonas aeruginosa 1091-05 by broth microdilution method
Assay [11] deals with Klebsiella pneumoniae. Kind of assay: Antibacterial activity against Klebsiella pneumoniae 1000-02 by broth microdilution method. It counts as functional.
The subject of assay [12] is Pseudomonas aeruginosa. In words: Antibacterial activity against Pseudomonas aeruginosa 1042-06 by broth microdilution method. It counts as functional.

As usually defined, the MIC50 is an inhibitory concentration at the 50% level, which refers to growth in some studies and to a panel of isolates in others. A high value points to lower susceptibility. In general, MIC90 refers to the lowest concentration that inhibits either 90% of growth or 90% of the strains tested, depending on the study. A higher MIC90 goes with weaker potency. On to `CO/N=C(\C(=O)N[C@@H]1C(=O)N2C(C(=O)[O-])=C(C[N+]3(C)CCCC3)CS[C@H]12)c1csc(N)n1`, for which the MIC50 in the assay on Pseudomonas aeruginosa [1] was 8 µg/mL (≈ 16.6 µM); in the assay on Acinetobacter sp. it was 8 µg/mL (≈ 16.6 µM); in the assay with Escherichia coli [2] it was 0.25 µg/mL (≈ 0.52 µM); against Escherichia coli [3], 64 µg/mL (≈ 133 µM); against Escherichia coli [4], 64 µg/mL (≈ 133 µM); in the assay on Klebsiella pneumoniae [5], more than 64 µg/mL. The figures for the MIC50 against Klebsiella pneumoniae [6], in the assay on Klebsiella pneumoniae [7] and with Pseudomonas aeruginosa [8] were 8 µg/mL (≈ 16.6 µM), 4 µg/mL (≈ 8.32 µM) and more than 64 µg/mL, respectively. The MIC90 against Pseudomonas aeruginosa [1] was more than 64 µg/mL; in the assay with Acinetobacter sp., more than 64 µg/mL; in the assay with Escherichia coli [2], 4 µg/mL (≈ 8.32 µM); in the assay on Escherichia coli [3] it was more than 64 µg/mL; in the assay with Escherichia coli [4] it was more than 64 µg/mL; in the assay on Klebsiella pneumoniae [5] it was more than 64 µg/mL. In addition, the MIC90 with Klebsiella pneumoniae [6], with Klebsiella pneumoniae [7] and against Pseudomonas aeruginosa [8] was more than 64 µg/mL in each case. For the same compound, the MIC against Acinetobacter baumannii was 2 µg/mL (≈ 4.16 µM); against Klebsiella pneumoniae [9] it was more than 64 µg/mL; with Pseudomonas aeruginosa [10], 2 µg/mL (≈ 4.16 µM).

Take `CC(C)(O/N=C(\C(=O)N[C@@H]1C(=O)N(S(=O)(=O)O)[C@@H]1CNC(=O)c1cc(=O)c(O)cn1CC(=O)O)c1csc(N)n1)C(=O)O`: the MIC in the assay with Acinetobacter baumannii was determined as 1 µg/mL (≈ 1.55 µM); against Klebsiella pneumoniae [9], 4 µg/mL (≈ 6.2 µM); in the assay with Klebsiella pneumoniae [11], 0.25 µg/mL (≈ 0.387 µM); in the assay with Pseudomonas aeruginosa [12], 2 µg/mL (≈ 3.1 µM); with Pseudomonas aeruginosa [10], 1 µg/mL (≈ 1.55 µM).

Turning to `CC(C)(O/N=C(\C(=O)N[C@@H]1C(=O)N(S(=O)(=O)O)[C@@H]1CNS(=O)(=O)NCc1cc(=O)c(O)cn1O)c1csc(N)n1)C(=O)O`, the MIC against Acinetobacter baumannii came to 1 µg/mL (≈ 1.5 µM); in the assay on Klebsiella pneumoniae [9], 32 µg/mL (≈ 47.9 µM); against Pseudomonas aeruginosa [12], 16 µg/mL (≈ 23.9 µM); with Pseudomonas aeruginosa [10], 1 µg/mL (≈ 1.5 µM).

Turning to `NCCO/N=C(\C(=O)N[C@@H]1C(=O)N(S(=O)(=O)O)[C@@H]1CNC(=O)NCc1cc(=O)c(O)cn1O)c1csc(N)n1`, the MIC in the assay with Acinetobacter baumannii was 4 µg/mL (≈ 6.78 µM); in the assay with Klebsiella pneumoniae [9], more than 64 µg/mL; against Klebsiella pneumoniae [11] it was more than 64 µg/mL; against Pseudomonas aeruginosa [12] it was more than 64 µg/mL; against Pseudomonas aeruginosa [10], 4 µg/mL (≈ 6.78 µM).

In the case of `Nc1nc(/C(=N/OC2CCCC2)C(=O)N[C@@H]2C(=O)N(S(=O)(=O)O)[C@@H]2CNC(=O)NCc2cc(=O)c(O)cn2O)cs1`, the MIC was 1 µg/mL (≈ 1.63 µM) with Acinetobacter baumannii; 32 µg/mL (≈ 52.1 µM) with Klebsiella pneumoniae [9]; 8 µg/mL (≈ 13 µM) with Klebsiella pneumoniae [11]; 16 µg/mL (≈ 26 µM) in the assay with Pseudomonas aeruginosa [12]; 1 µg/mL (≈ 1.63 µM) against Pseudomonas aeruginosa [10].

For `Nc1nc(/C(=N/O[C@@H](Cc2ccccc2)C(=O)O)C(=O)N[C@@H]2C(=O)N(S(=O)(=O)O)[C@@H]2CNC(=O)NCc2cc(=O)c(O)cn2O)cs1`, the results for the MIC against Klebsiella pneumoniae [9], against Pseudomonas aeruginosa [12] and in the assay with Pseudomonas aeruginosa [10] were 1 µg/mL (≈ 1.44 µM), 8 µg/mL (≈ 11.5 µM) and 1 µg/mL (≈ 1.44 µM), respectively.

Take `C[C@@H](O)[C@H]1C(=O)N2C(C(=O)O)=C(S[C@@H]3CN[C@H](C(=O)N(C)C)C3)[C@H](C)[C@H]12` [MEROPENEM]: the MIC50 against Pseudomonas aeruginosa [1] came to 1 µg/mL (≈ 2.61 µM); in the assay on Acinetobacter sp., 1 µg/mL (≈ 2.61 µM); in the assay with Escherichia coli [2] it was 0.03 µg/mL (≈ 0.0782 µM); against Escherichia coli [3] it was 0.03 µg/mL (≈ 0.0782 µM); with Escherichia coli [4] it was 0.03 µg/mL (≈ 0.0782 µM); against Klebsiella pneumoniae [5], 32 µg/mL (≈ 83.4 µM). Besides, the MIC50 in the assay with Klebsiella pneumoniae [6] and with Klebsiella pneumoniae [7] was 0.03 µg/mL (≈ 0.0782 µM) in each case. The MIC90 in the assay on Pseudomonas aeruginosa [1] was 16 µg/mL (≈ 41.7 µM); in the assay with Acinetobacter sp., 32 µg/mL (≈ 83.4 µM); against Escherichia coli [2], 0.06 µg/mL (≈ 0.156 µM); against Escherichia coli [3] it was 0.06 µg/mL (≈ 0.156 µM); against Escherichia coli [4] it was 0.06 µg/mL (≈ 0.156 µM); in the assay with Klebsiella pneumoniae [5] it was more than 64 µg/mL. Also, the MIC90 in the assay with Klebsiella pneumoniae [6] and against Klebsiella pneumoniae [7] was 0.25 µg/mL (≈ 0.652 µM) each time. Besides, the MIC came to 0.25 µg/mL (≈ 0.652 µM) with Acinetobacter baumannii, 0.25 µg/mL (≈ 0.652 µM) against Klebsiella pneumoniae [11] and 2 µg/mL (≈ 5.22 µM) in the assay on Pseudomonas aeruginosa [10].

In the case of `O=C(O)c1cn(C2CC2)c2cc(N3CCNCC3)c(F)cc2c1=O` [CIPROFLOXACIN], the MIC50 with Pseudomonas aeruginosa [1] was 2 µg/mL (≈ 6.04 µM); against Acinetobacter sp., 0.5 µg/mL (≈ 1.51 µM); against Escherichia coli [2], 0.03 µg/mL (≈ 0.0905 µM); against Escherichia coli [4] it was more than 64 µg/mL; with Klebsiella pneumoniae [6] it was 0.25 µg/mL (≈ 0.754 µM); in the assay with Klebsiella pneumoniae [7], 0.5 µg/mL (≈ 1.51 µM). For the same compound, the MIC50 with Pseudomonas aeruginosa [8] amounted to 32 µg/mL (≈ 96.6 µM). Also, the MIC90 was 16 µg/mL (≈ 48.3 µM) with Pseudomonas aeruginosa [1]; more than 64 µg/mL against Acinetobacter sp.; 0.06 µg/mL (≈ 0.181 µM) against Escherichia coli [2]; more than 64 µg/mL against Escherichia coli [3]; more than 64 µg/mL with Escherichia coli [4]; more than 64 µg/mL against Pseudomonas aeruginosa [8]. Moreover, the MIC against Acinetobacter baumannii came to 0.06 µg/mL (≈ 0.181 µM); against Pseudomonas aeruginosa [12], 64 µg/mL (≈ 193 µM).

Turning to `Nc1nc(/C(=N/OC2(C(=O)O)CCCC2)C(=O)N[C@@H]2C(=O)N(S(=O)(=O)O)[C@@H]2CNC(=O)NCc2cc(=O)c(O)cn2O)cs1`, the MIC against Acinetobacter baumannii is 0.125 µg/mL (≈ 0.19 µM); in the assay with Klebsiella pneumoniae [9], 0.5 µg/mL (≈ 0.759 µM); against Klebsiella pneumoniae [11], 0.25 µg/mL (≈ 0.38 µM); against Pseudomonas aeruginosa [12], 1 µg/mL (≈ 1.52 µM); in the assay on Pseudomonas aeruginosa [10] it was 0.25 µg/mL (≈ 0.38 µM).

As for `CC(C)(O/N=C(\C(=O)N[C@@H]1C(=O)N(S(=O)(=O)O)[C@@H]1CNC(=O)c1cccc(O)c1O)c1csc(N)n1)C(=O)O`, the MIC against Acinetobacter baumannii was 16 µg/mL (≈ 27.3 µM); against Klebsiella pneumoniae [9], 64 µg/mL (≈ 109 µM); with Klebsiella pneumoniae [11], 64 µg/mL (≈ 109 µM); against Pseudomonas aeruginosa [12] it was 32 µg/mL (≈ 54.6 µM); in the assay on Pseudomonas aeruginosa [10], 16 µg/mL (≈ 27.3 µM).

As for `Nc1nc(/C(=N/OCCCC(=O)O)C(=O)N[C@@H]2C(=O)N(S(=O)(=O)O)[C@@H]2CNC(=O)NCc2cc(=O)c(O)cn2O)cs1`, the MIC in the assay with Acinetobacter baumannii is 0.5 µg/mL (≈ 0.79 µM); in the assay on Klebsiella pneumoniae [9] it was more than 64 µg/mL; against Klebsiella pneumoniae [11], 32 µg/mL (≈ 50.6 µM); against Pseudomonas aeruginosa [12], 8 µg/mL (≈ 12.6 µM); against Pseudomonas aeruginosa [10], 0.5 µg/mL (≈ 0.79 µM).

Turning to `CC(C)(O/N=C(\C(=O)N[C@@H]1C(=O)N(S(=O)(=O)O)[C@@H]1Cn1cc(-c2cc(=O)c(O)cn2O)nn1)c1csc(N)n1)C(=O)O`, the MIC against Acinetobacter baumannii and with Pseudomonas aeruginosa [10] was 0.125 µg/mL (≈ 0.199 µM) in each case.

Take `Nc1nc(/C(=N/OC2(C(=O)O)CCCCC2)C(=O)N[C@@H]2C(=O)N(S(=O)(=O)O)[C@@H]2CNC(=O)NCc2cc(=O)c(O)cn2O)cs1`: the MIC against Klebsiella pneumoniae [9] is 4 µg/mL (≈ 5.95 µM); in the assay with Pseudomonas aeruginosa [12], 8 µg/mL (≈ 11.9 µM); in the assay with Pseudomonas aeruginosa [10], 1 µg/mL (≈ 1.49 µM).
